Laboratory results taken from patent US20070110716A1, “Relationship of a specific metabolite to insulin resistance” (priority 2003, published 2007).

Tests used:
Akt = assay: Insulin-stimulated phosphorylation of Akt in L6 myotubes exposed to high FA; assay type: cell-based, rat; conditions: 24 h exposure to high FA
Procedure: The model predicts that the development of insulin resistance requires FA uptake into muscle mitochondria and subsequent β-oxidation. To test this model, signaling experiments were performed in which mitochondrial FA metabolism was inhibited by carnitine deficiency or etomoxir.

L6 myocytes = assay: Acylcarnitine and ketone accumulation in L6 myocytes exposed to high FA; assay type: cell-based, rat; conditions: co-administration
Procedure: Cell culture. Early passages of rat L6 myoblasts (ATCC CRL-1458) from the American Tissue Culture Collection (Rockville, Md.) were grown in Dulbecco's Modified Eagle Medium (DMEM) with 10% Fetal Bovine Serum, 4.0 mM glutamine, and […] gentamycin, in a humidified incubator at 37° C., 5% CO2. Myoblasts were grown on 100 mm dishes to 50-60% confluence and then subcultured onto 6 and 24-well collagen-coated plates for experiments. When cells were 70% confluent, they were induced to differentiate into myotubes by changing to low-serum DFM (DMEM, 2% horse-serum, 4.0 mM glutamine, […] gentamycin). […]
Substrate Metabolism. […] Briefly, the production of [^14C]-labeled [^14C]CO2 (complete oxidation) was measured and where appropriate, [^14C]-labeled ASM, a measure of TCA cycle intermediates and acylcarnitine esters and ketones (incomplete oxidation) was measured, using a modified 48-well microtiter plate (Kim, et al. (2002) Am. J. Physiol. Endocrinol. Metab. 282:E1014-El022). […] Radioactivity was determined by scintillation counting. […] Rates of ketone production were determined by treating media and tissue lysates with sodium borodeuteride, thereby producing ketoacids labeled with deuterium. Trimethylsilyated extracts spiked with internal standards were analyzed by GC/MS, permitting determination of βHB and AcAc in a single analysis. […]

Structure (SMILES)	Lipid-induced insulin resistance (insulin-stimulated phosphorylation of Akt) (Akt)	Accumulation of lipid metabolites (acylcarnitines, βHB-carnitine, free ketones, C2) (L6 myocytes)
C[N+](C)(C)CC(O)CC(=O)[O-] (stereo not drawn) [carnitine]	exacerbated lipid-induced insulin resistance in a dose-dependent manner	
CCOC(=O)[C@@]1(CCCCCCOc2ccc(Cl)cc2)CO1 [etomoxir]	at least partly protected	prevented
